Laboratory results from US20230056135A1, “MONOMER AND MULTIMERIC ANTI-HBV AGENTS” (priority 2018, published 2023).
Like-named read-outs stand apart in the source and are kept apart here.

How the values were obtained:
[1] = test system: human PBM; assay: Cellular toxicity assay in human PBM cells; type: cell-based; details: human PBM cells; read-out: Cytotoxicity; CC50 (μM) PBM
Procedure: (§1) The toxicity of the compounds was assessed in Vero, human PBM, CEM (human lymphoblastoid), MT-2, and HepG2 cells, as described previously (see Schinazi R. F., Sommadossi J.-P., Saalmann V., Cannon D. L., Xie M.-Y., Hart G. C., Smith G. A. & Hahn E. F. Antimicrob. Agents Chemother. 1990, 34, 1061-67). Cycloheximide was included as positive cytotoxic control, and untreated cells exposed to solvent were included as negative controls. The cytotoxicity IC50 was obtained from the concentration-response curve using the median effective method described previously (see Chou T.-C. & Talalay P. Adv. Enzyme Regul. 1984, 22, 27-55; Belen'kii M. S. & Schinazi R. F. Antiviral Res. 1994, 25, 1-11).

[2] = test system: HepG2 cells; assay: Cellular toxicity assay in HepG2 cells; type: cell-based; details: HepG2 cells; read-out: Cytotoxicity; CC50 (μM) HepG2
Procedure: as §1

[3] = test system: wild type HBV; assay: Anti-HBV assay in AD-38 cell line (HBV in culture supernatant); type: cell-based; details: for EC50: read-out: Anti-HBV activity EC50; for EC90: read-out: Anti-HBV activity EC90
Procedure: The anti-HBV activity of the compounds was determined by treating the AD-38 cell line carrying wild type HBV under the control of tetracycline (see Ladner S. K., Otto M. J., Barker C. S., Zaifert K., Wang G. H., Guo J. T., Seeger C. & King R. W. Antimicrob. Agents Chemother. 1997, 41, 1715-20). Removal of tetracycline from the medium [Tet (−)] results in the production of HBV. The levels of HBV in the culture supernatant fluids from cells treated with the compounds were compared with that of the untreated controls. Control cultures with tetracycline [Tet (+)] were also maintained to determine the basal levels of HBV expression. 3TC was included as positive control.
The median effective concentrations (EC50) ranges of several of the compounds described herein against HBV are shown in Table 3: […]

[4] = Cellular toxicity assay in human PBM cells; type: cell-based
Procedure: as §1

[5] = Cellular toxicity assay in HepG2 cells; type: cell-based; details: human
Procedure: as §1

[6] = Cellular toxicity assay in CEM cells; type: cell-based, human; details: human
Procedure: as §1

[7] = Cellular toxicity assay in Vero cells; type: cell-based; details: African green monkey
Procedure: as §1

[8] = test system: Glutathione levels (GSH); assay: Glutathione levels in Huh7 cells (GSH-Glo Glutathione Assay); type: cell-based
Procedure: Glutathione levels (GSH) were measured in Huh7 cells after 22 h treatment with 10 μM CAMs (GSH-Glo™ Glutathione Assay—Promega). Treatment of Huh7 with 10 μM positive control, L-buthionine-sulfoximine, reduced cellular GSH levels by 58% (data not shown); Samples were tested in triplicates.

[9] = human, human PBM cells, read-out: Cytotoxicity, CC50 (μM) PBM
[10] = HepG2 cells, read-out: Cytotoxicity, CC50 (μM) HepG2
[11] = CEM lymphoblastoid cells, CEM cells, read-out: Cytotoxicity, CC50 (μM) CEM
[12] = Vero cells, read-out: Cytotoxicity, CC50 (μM) VERO
[13] = Hepatitis B virus, AD-38 cell line, Tet (-)

Molecule	CC50 [4, 9]	CC50 [5, 10]	CC50 [6, 11]	CC50 [7, 12]	EC50 [3, 13]	EC90 [3, 13]	other results
4,4′-(2,2′-(((Tetradecane-1,14-diylbis(1H-1,2,3-triazole-1,4-diyl))bis(methylene)) bis(azanediyl)) bis(2-oxoacetyl))bis(N-(3,4-difluorophenyl)-1,3,5-trimethyl-1H-pyrrole-2-carboxamide) [Compound 80]							CC50 [1]: > 100 µM; CC50 [2]: > 100 µM; EC50 ([3]; AD-38 cell line, Tet (-)): 0.001 to 0.01 µM
Fc1ccc(C2N=C(c3nccs3)NC(CN3CCOCC3)=C2C#CC2CC2)c(Br)c1 (stereo not drawn) [Compound 17, 4-((6-(2-Bromo-4-fluorophenyl)-5-(cyclopropylethynyl)-2-(thiazol-2-yl)-3,6-dihydropyrimidin-4-yl)methyl)morpholine]	19 µM	81 µM	17 µM	23 µM	0.01 to 0.1 µM	0.1 to 1 µM	
CCOC(=O)C1=C(CNCc2cn(CCCCCCCCn3cc(CNCC4=C(C(=O)OCC)C(c5ccc(F)cc5Br)N=C(c5nccs5)N4)nn3)nn2)NC(c2nccs2)=NC1c1ccc(F)cc1Br (stereo not drawn) [Compound 17c, Diethyl 6,6′-((((octane-1,8-diylbis(1H-1,2,3-triazole-1,4-diyl))bis(methylene))bis-(azanediyl))bis(methylene))bis(4-(2-bromo-4-fluorophenyl)-2-(thiazol-2-yl)-1,4-dihydropyrimidine-5-carboxylate)]	11 µM	38.5 µM	7.1 µM	> 100 µM	1 to 10 µM	1 to 10 µM	
CCOC(=O)C1=C(CNCc2cn(CCCCCCCCCCCCn3cc(CNC(=O)C(=O)c4c(C)c(C(=O)Nc5ccc(F)c(F)c5)n(C)c4C)nn3)nn2)NC(c2nccs2)=NC1c1ccc(F)cc1Br (stereo not drawn) [Compound 23, Ethyl 4-(2-bromo-4-fluorophenyl)-6-((((1-(12-(4-((2-(5-((3,4-difluorophenyl)-carbamoyl)-1,2,4-trimethyl-1H-pyrrol-3-yl)-2-oxoacetamido)methyl)-1H-1,2,3-triazol-1-yl)dodecyl)-1H-1,2,3-triazol-4-yl)methyl)amino)methyl)-2-(thiazol-2-yl)-1,4-dihydropyrimidine-5-carboxylate]	> 100 µM	63 µM	14 µM	> 100 µM	0.01 to 0.1 µM	0.1 to 1 µM	
O=C(Nc1ccc(F)c(Cl)c1)N1[C@@H]2CC[C@H]1c1c(-c3cscn3)n[nH]c1C2 [Compound 33, (4S,7R)—N-(3-Chloro-4-fluorophenyl)-3-(thiazol-4-yl)-1,4,5,6,7,8-hexahydro-4,7-epiminocyclo hepta[c]pyrazole-9-carboxamide]					0.1 to 1 µM	1 to 10 µM	CC50 ([4]; human): 32 µM; CC50 [5]: 19 µM; CC50 [6]: 32 µM; CC50 [7]: 61 µM
O=S(=O)(NC1CC2=C(C#CC3CC3)C(c3ccc(F)cc3Cl)N=C(c3nccs3)N2C1)C1CC1 (stereo not drawn) [Compound 45, N-(3-(2-Chloro-4-fluorophenyl)-4-(cyclopropylethynyl)-1-(thiazol-2-yl)-3,5,6,7-tetrahydro-pyrrolo[1,2-c]pyrimidin-6-yl)cyclopropanesulfonamide]	75 µM	> 100 µM	24 µM	> 100 µM	0.01 to 0.1 µM	0.1 to 1 µM	
CCOC(=O)C1=C(CNCc2cn(CCOCCOCCOCCOCCOCCn3cc(CNC(=O)C(=O)c4c(C)c(C(=O)Nc5ccc(F)c(F)c5)n(C)c4C)nn3)nn2)NC(c2nccs2)=NC1c1ccc(F)cc1Br (stereo not drawn) [Compound 50, Ethyl 4-(2-bromo-4-fluorophenyl)-6-((((1-(17-(4-((2-(5-((3,4-difluorophenyl)carbamoyl)-1,2,4-trimethyl-1H-pyrrol-3-yl)-2-oxoacetamido)methyl)-1H-1,2,3-triazol-1-yl)-3,6,9,12,15-pentaoxaheptadecyl)-1H-1,2,3-triazol-4-yl)methyl)amino)methyl)-2-(thiazol-2-yl)-1,4-dihydropyrimidine-5-carboxylate]	99 µM	> 100 µM	27 µM	> 100 µM	0.1 to 1 µM	1 to 10 µM	
Cc1c(C(=O)C(=O)NCCCCO[P@@](=O)(N[C@@H](C)C(=O)OC(C)C)Oc2ccccc2)c(C)n(C)c1C(=O)Nc1ccc(F)c(F)c1 [Compound 58, Isopropyl ((S)-(4-(2-(5-((3,4-difluorophenyl)carbamoyl)-1,2,4-trimethyl-1H-pyrrol-3-yl)-2-oxoacetamido)butoxy)(phenoxy)phosphoryl)-L-alaninate]		29 µM		12 µM			CC50 ([4]; human PBM cells, read-out: Cytotoxicity, CC50 (μM) PBM): 7 µM; CC50 ([6]; CEM cells, read-out: Cytotoxicity, CC50 (μM) CEM): 10 µM; EC50 ([3]; Hepatitis B virus): 0.1 to 1 µM; EC90 ([3]; Hepatitis B virus): 1 to 10 µM
Cc1c(C(=O)C(=O)NCCCCCCCCO)c(C)n(C)c1C(=O)Nc1ccc(F)c(F)c1 [Compound 60, N-(3,4-Difluorophenyl)-4-(2-(8-hydroxyoctylamino)-2-oxoacetyl)-1,3,5-trimethyl-1H-pyrrole-2-carboxamide]	36 µM	63 µM	4 µM	14 µM	0.01 to 0.1 µM	0.1 to 1 µM	
Cc1c(C(=O)C(=O)NCCCB2OC3CC4CC(C4(C)C)C3(C)O2)c(C)n(C)c1C(=O)Nc1ccc(F)c(F)c1 (stereo not drawn) [Compound 62, N-(3,4-difluorophenyl)-1,3,5-trimethyl-4-(2-oxo-2-((3-(3a,5,5-trimethylhexahydro-4,6-methanobenzo[d][1,3,2]dioxaborol-2-yl)propyl)amino)acetyl)-1H-pyrrole-2-carboxamide]	13 µM	6 µM	4 µM	7 µM	0.01 to 0.1 µM	0.01 to 0.1 µM	
Cc1c(C(=O)C(=O)NCCCB(O)O)c(C)n(C)c1C(=O)Nc1ccc(F)c(F)c1 [Compound 64, (3-(2-(5-((3,4-Difluorophenyl)carbamoyl)-1,2,4-trimethyl-1H-pyrrol-3-yl)-2-oxoacetamido)propyl)boronic acid]	62 µM	98 µM	26 µM	76 µM	0.01 to 0.1 µM	0.01 to 0.1 µM	
Cc1c(C(=O)C(=O)NCc2cn(CCOCCOCCOCC(CO)COCCOCCOCCn3cc(CNC(=O)C(=O)c4c(C)c(C(=O)Nc5ccc(F)c(F)c5)n(C)c4C)nn3)nn2)c(C)n(C)c1C(=O)Nc1ccc(F)c(F)c1 [Compound 101, 4,4′-(2,2′-((((11-(Hydroxymethyl)-3,6,9,13,16,19-hexaoxahenicosane-1,21-diyl)bis(1H-1,2,3-triazole-1,4-diyl))bis(methylene))bis(azanediyl))bis(2-oxoacetyl))bis(N-(3,4-difluorophenyl)-1,3,5-trimethyl-1H-pyrrole-2-carboxamide)]							CC50 [1]: > 100 µM; CC50 [2]: > 100 µM; EC50 ([3]; AD-38 cell line, Tet (-)): 0.01 to 0.1 µM
C#CCn1c(C)c(C(=O)C(=O)NC(C#C)(CC)CC)c(C)c1C(=O)Nc1ccc(F)c(F)c1 [Compound 115, N-(3,4-Difluorophenyl)-4-(2-((3-ethylpent-1-yn-3-yl)amino)-2-oxoacetyl)-3,5-dimethyl-1-(prop-2-yn-1-yl)-1H-pyrrole-2-carboxamide]	45 µM	35 µM			0.0001 to 0.001 µM		GSH levels relative to untreated control ([8]; 22 h treatment): > 10 µM; inhibition at 10 µM ([8]; Homo sapiens, Huh-7, read-out: GSH levels relative to untreated control (% inhibition at 10 μM), 22 h, 10 μM): < 1%
CCCCS(=N)(=O)CCC(N)C(=O)O [L-buthionine-sulfoximine, reference compound]							reduction of cellular GSH levels ([8]; 10 μM positive control): 58%
